Data: BindingDB's records for doi:10.1016/s0960-894x(99)00462-x (Abbott Laboratories, 1999)

Assay: Nicotinic acetylcholine receptor binding activity was determined by ability to displace [125I]alpha-BgT binding to rat brain membrane

SMILES	Ki [µM]
CN1CC[C@H](Oc2cccnc2)C1 [3-((S)-1-Methyl-pyrrolidin-3-yloxy)-pyridine]	> 10
c1ncc(OC[C@@H]2CCN2)cn1 [5-((S)-1-Azetidin-2-ylmethoxy)-pyrimidine]	> 10
CN1CC[C@H]1COc1cncnc1 [5-((S)-1-Methyl-azetidin-2-ylmethoxy)-pyrimidine]	> 10
CN1CC[C@@H](Oc2cccnc2)C1 [3-((R)-1-Methyl-pyrrolidin-3-yloxy)-pyridine]	> 10
